From ChEMBL document CHEMBL1201862, “PubChem BioAssay data set” (2004)
Calls of active or inactive are those of the source.

Tests used:
[1] = molecular target: T1, Delta-type opioid receptor (Homo sapiens, UniProt P41143); experiment: HTS Image-Based Screen for Antagonists of the DOR Receptor. [Related pubchem assays (depositor defined):AID1777, AID1785, AID1786, AID2133]; assay type: functional
[2] = inhibitors of firefly luciferase expression or activity, dose response, H4 neuroglioma cells, luminescence (AID 1990); assay type: functional, cell-based
Mu-type opioid receptor = Mu-type opioid receptor (Homo sapiens, UniProt P35372); experiment: HTS Image-Based Screen for Agonists of the MOR Receptor. [Related pubchem assays (depositor defined):AID1777, AID1785, AID1786, AID2133]; assay type: functional;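 further: imaging of beta-arrestin GFP recruitment into spots after receptor activation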
[3] = molecular target: T1, Delta-type opioid receptor; experiment: HTS Image-Based Screen for Agonists of the DOR Receptor. [Related pubchem assays (depositor defined):AID1777, AID1786, AID2133]; assay type: functional
[4] = inhibitors of SNCA 5'UTR-driven reporter translation, confirmation, H4 neuroglioma cells, luminescence (AID 1988); assay type: functional, cell-based
[5] = inhibitors of intracellular T. cruzi replication, confirmation, NIH3T3 host cells, beta-gal luminescence (AID 2044); assay type: functional, cell-based;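 further: intracellular parasites grown in NIH/3T3 mouse fibroblasts as host cells; luminescent beta-galactosidase reporter signal from transgenic T. cruzi replicating inside host cells; inhibitors lower the luminescence signal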
[6] = molecular target: T2, Kappa-type opioid receptor (Homo sapiens, UniProt P41145); assay type: functional
[7] = cytotoxicity toward NIH3T3 fibroblasts, dose response, counter-screen, cell-based, ATP luminescence, mouse fibroblasts (AID 2010); assay type: functional;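 further: cells exposed to compound for about 90 hours before reading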
Beta-galactosidase = Beta-galactosidase (Escherichia coli, UniProt Q8VNN2); assay type: functional
[8] = molecular target: T2, Kappa-type opioid receptor; assay type: functional; remark: listed apart in the source
[9] = molecular target: T3, Heat shock factor protein 1 (Mus musculus, UniProt P38532); experiment: HSF1 potentiators in luciferase reporter cells, confirmation, cell-based, NIH3T3, luminescence, dose retest (AID 435004); assay type: functional;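 further: stress induced by proteasome inhibitor MG132 added 30 min after compound; luciferase reporter driven by HSF1 response element in NIH3T3 cells; actives raise luminescence as potentiators of the MG132 stress response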
T3 sequence (P38532 whole entry): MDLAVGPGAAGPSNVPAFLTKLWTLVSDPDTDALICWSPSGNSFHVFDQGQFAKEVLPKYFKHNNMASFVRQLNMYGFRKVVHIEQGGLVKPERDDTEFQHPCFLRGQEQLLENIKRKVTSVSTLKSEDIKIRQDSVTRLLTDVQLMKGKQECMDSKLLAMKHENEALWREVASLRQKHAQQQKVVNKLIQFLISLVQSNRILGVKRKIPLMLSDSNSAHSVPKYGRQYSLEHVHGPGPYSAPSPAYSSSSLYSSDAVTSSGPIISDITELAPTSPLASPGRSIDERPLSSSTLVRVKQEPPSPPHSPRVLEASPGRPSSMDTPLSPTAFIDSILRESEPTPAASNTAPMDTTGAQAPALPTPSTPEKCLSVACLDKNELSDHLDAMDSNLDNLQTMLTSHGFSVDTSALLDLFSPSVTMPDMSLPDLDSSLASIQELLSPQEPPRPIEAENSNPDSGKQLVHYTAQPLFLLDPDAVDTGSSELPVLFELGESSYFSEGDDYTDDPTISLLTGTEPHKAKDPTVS

CHO = experiment: cytotoxicity in TLR9-MyD88 CHO cells, dose response, cytotoxicity control for TLR9-MyD88 binding inhibitor project, cell-based, luminescence (AID 588339); assay type: functional, hamster; details: Cricetulus griseus;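 further: CHO cells stably coexpressing TLR9 and MyD88 fusions from primary screen; compound exposure lasted 48 hours before viability readout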
Beta Lactamase = Beta Lactamase (Pseudomonas aeruginosa, UniProt Q932Y6); experiment: beta-lactamase reporter inhibitor potency, dose response, artefact control for TLR9-MyD88 binding inhibitor project, BLA reporter cells, FRET fluorescence (AID 588341); assay type: cell-based;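 further: cell based assay in CHO-K1 cells stably expressing beta-lactamase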
Paired box protein Pax-8 = Paired box protein Pax-8 (Homo sapiens, UniProt Q06710); experiment: inhibitors of PAX8-driven TPO luciferase reporter, dose response, RMG-I cells, cherry-pick (AID 687027); assay type: functional, cell-based;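 further: luciferase reporter driven by Pax8 target thyroperoxidase promoter measured by SteadyGlo luminescence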
[10] = inhibitors of PGC1a acetylation in cells, dose response, cell-based, cherry-picked samples (AID 720514); assay type: functional;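 further: potency may reflect raised or lowered acetylation signal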
[11] = A549 cell cytotoxicity, dose response, cytotoxicity control, plate reader, cherry-pick, antagonist series (AID 743412); assay type: functional, cell-based
[12] = HepG2 cell cytotoxicity, dose response, cytotoxicity control, plate reader, cherry-pick, antagonist series (AID 743416); assay type: functional, cell-based
[13] = LGR2 antagonists, dose response, cell-based, HEK293, CRE-luciferase reporter, cherry pick, set 2 (AID 743343); assay type: functional;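 further: transfected cells were stimulated with diluted bursicon conditioned medium after compound addition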
[14] = non-specific cell cytotoxicity, dose response, cytotoxicity control for PAX8 inhibitor project, plate reader, dry powder samples (AID 743021); assay type: functional, cell-based
[15] = MC4R antagonists, dose response, counter-screen for LGR2 antagonist project, cell-based, plate reader, cherry pick (AID 743444); assay type: functional;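 further: transfected HEK 293 cells stimulated with alpha-MSH peptide; potency of inhibitors of the alpha-MSH evoked signal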
[16] = HEK293 cell cytotoxicity, dose response, cytotoxicity control, plate reader, cherry-picked samples (AID 743446); assay type: functional, cell-based
Exodeoxyribonuclease V = Exodeoxyribonuclease V (Escherichia coli (strain K12), UniProt P04993+P07648+P08394); experiment: E. coli RecBCD inhibitors, dose response, counter-screen for AddAB inhibitor project, absorbance, V66 E. coli, mutant T4 phage (AID 492957); assay type: functional, cell-based, Escherichia coli str. K-12 substr. MG1655
[17] = Counterscreen for AddAB inhibitors: absorbance-based bacterial cell-based high throughput dose response assay for inhibitors of bacterial viability. [Related pubchem assays (depositor defined):AID435030, AID449728, AID449731, AID488942, AID488955, AID488956]; assay type: functional
[18] = molecular target: Heat shock protein HSP 90-alpha (Homo sapiens, UniProt P07900); assay type: functional, organism-based
INS1 = experiment: beta cell apoptosis inhibitors, cytokine rescue, dose response, luminescence, retest (AID 449756); assay type: functional, cell-based; details: Rattus norvegicus;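 further: cell death triggered by IL-1 beta plus TNF-alpha plus IFN-gamma mixture; protective hits raise ATP signal compared with cytokine alone wells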
H9c2 = experiment: cells; assay type: functional, cell-based; details: Rattus norvegicus, H9c2, Myocardium;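 further: confirmatory concentration-response retest of ultra-high-throughput screening hits for modulation of myocardial damage; cell death induced by hydrogen peroxide oxidative stress; compound pretreatment for 60 min then peroxide exposure for 2 h; potency is for protecting the cells against peroxide damage rather than for killing them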
[19] = human group III sPLA2 inhibitors, dose response, biochemical, QFRET, IC50 (AID 743457);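 further: green fluorescence rise as the enzyme cleaves BODIPY PC-A2 in liposomes; potency for inhibition of the enzyme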
[20] = molecular target: T4, Tyrosine-protein phosphatase non-receptor type 7 (Homo sapiens, UniProt P35236); assay type: functional
T4 sequence (P35236 whole entry): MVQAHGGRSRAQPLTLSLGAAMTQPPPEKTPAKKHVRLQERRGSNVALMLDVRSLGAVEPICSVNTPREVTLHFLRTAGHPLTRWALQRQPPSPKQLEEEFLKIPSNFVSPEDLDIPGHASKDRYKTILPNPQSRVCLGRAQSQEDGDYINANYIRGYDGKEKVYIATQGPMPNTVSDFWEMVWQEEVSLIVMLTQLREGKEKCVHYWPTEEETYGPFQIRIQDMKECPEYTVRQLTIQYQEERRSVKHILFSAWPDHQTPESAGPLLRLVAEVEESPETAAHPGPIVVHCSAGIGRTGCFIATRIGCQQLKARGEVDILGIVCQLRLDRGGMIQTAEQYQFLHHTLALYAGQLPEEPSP

[21] = molecular target: T5, Tyrosine-protein phosphatase non-receptor type 22 (Homo sapiens, UniProt Q9Y2R2); assay type: functional
T5 sequence (Q9Y2R2 whole entry): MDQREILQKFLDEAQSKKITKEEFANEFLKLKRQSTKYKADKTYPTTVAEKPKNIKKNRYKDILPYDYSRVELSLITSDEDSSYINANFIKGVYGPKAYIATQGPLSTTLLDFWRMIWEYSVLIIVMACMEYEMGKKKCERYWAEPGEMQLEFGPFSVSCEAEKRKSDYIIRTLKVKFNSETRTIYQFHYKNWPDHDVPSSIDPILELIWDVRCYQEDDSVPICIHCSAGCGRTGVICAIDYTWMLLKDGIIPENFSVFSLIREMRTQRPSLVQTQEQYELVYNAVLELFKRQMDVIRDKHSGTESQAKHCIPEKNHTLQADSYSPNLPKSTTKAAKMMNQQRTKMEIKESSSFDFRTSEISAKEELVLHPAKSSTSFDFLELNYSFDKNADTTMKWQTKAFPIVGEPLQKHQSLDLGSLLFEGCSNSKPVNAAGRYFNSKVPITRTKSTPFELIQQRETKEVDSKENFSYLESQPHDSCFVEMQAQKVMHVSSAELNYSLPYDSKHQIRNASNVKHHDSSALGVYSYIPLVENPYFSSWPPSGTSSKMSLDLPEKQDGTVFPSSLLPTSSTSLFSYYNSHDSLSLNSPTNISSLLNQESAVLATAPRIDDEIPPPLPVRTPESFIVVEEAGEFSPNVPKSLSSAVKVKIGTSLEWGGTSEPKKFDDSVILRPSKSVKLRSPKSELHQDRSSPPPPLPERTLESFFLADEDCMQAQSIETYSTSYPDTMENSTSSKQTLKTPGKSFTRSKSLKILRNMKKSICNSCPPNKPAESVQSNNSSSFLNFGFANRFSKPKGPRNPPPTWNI

[22] = molecular target: T5, Tyrosine-protein phosphatase non-receptor type 22; assay type: functional; remark: listed apart in the source
[23] = Luminescent dose response cell-based high throughput screening assay for inhibitors of the Janus kinase 2 mutant JAK2V617F. [Related pubchem assays: 1446 (Primary screen.), 1521 (Confirmation assay.), 1486 (Counter screen.)]; assay type: functional
[24] = Luminescence Cell-Based Dose Response HTS to Identify Inhibitors of 5'UTR Stem-Loop Driven Prion Protein mRNA Translation in H4 Neuroglioblastoma Cells. [Related pubchem assays: 1827 (Project Summary), 1813 (Primary HTS)]; assay type: functional
[25] = Luminescence Cell-Based Dose Retest to Confirm Inhibitors of Cancer Stem Cells. [Related pubchem assays (depositor defined):AID2717, AID2721]; assay type: functional; details: Homo sapiens
Cysteine protease ATG4B = molecular target: T6, Cysteine protease ATG4B (Homo sapiens, UniProt Q9Y4P1); assay type: functional;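 further: Fluorescence-based dose-response confirmation assay measuring inhibition of ATG4B activity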
T6 sequence (Q9Y4P1 whole entry): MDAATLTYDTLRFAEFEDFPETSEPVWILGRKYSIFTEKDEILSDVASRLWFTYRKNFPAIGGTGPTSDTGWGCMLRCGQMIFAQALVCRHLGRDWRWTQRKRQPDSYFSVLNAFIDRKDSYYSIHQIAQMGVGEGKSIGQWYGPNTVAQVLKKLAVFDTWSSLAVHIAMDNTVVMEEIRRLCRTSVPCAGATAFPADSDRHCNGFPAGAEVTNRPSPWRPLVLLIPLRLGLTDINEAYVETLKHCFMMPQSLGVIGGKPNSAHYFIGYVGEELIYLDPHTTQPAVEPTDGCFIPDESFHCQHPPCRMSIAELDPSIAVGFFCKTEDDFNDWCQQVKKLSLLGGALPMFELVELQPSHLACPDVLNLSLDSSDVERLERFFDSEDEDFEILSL

Phospholipase A2 = Phospholipase A2 (Homo sapiens, UniProt P04054); assay type: functional;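 further: confirmatory dose-response counterscreen on phospholipase A2, testing hits that came from an ultra-high-throughput screen for ATG4B inhibitors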

T1 sequence (P41143 whole entry): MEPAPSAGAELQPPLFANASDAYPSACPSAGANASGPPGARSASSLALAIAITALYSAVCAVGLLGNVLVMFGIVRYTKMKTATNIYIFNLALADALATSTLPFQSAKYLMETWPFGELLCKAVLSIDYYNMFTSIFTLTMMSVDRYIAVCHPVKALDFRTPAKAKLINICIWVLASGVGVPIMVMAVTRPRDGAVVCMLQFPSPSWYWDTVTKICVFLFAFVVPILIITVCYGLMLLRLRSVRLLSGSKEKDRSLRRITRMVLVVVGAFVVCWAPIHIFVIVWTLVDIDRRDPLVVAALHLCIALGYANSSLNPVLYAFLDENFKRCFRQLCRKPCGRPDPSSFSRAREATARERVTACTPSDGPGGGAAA
Exodeoxyribonuclease V, sequence (P04993 whole entry): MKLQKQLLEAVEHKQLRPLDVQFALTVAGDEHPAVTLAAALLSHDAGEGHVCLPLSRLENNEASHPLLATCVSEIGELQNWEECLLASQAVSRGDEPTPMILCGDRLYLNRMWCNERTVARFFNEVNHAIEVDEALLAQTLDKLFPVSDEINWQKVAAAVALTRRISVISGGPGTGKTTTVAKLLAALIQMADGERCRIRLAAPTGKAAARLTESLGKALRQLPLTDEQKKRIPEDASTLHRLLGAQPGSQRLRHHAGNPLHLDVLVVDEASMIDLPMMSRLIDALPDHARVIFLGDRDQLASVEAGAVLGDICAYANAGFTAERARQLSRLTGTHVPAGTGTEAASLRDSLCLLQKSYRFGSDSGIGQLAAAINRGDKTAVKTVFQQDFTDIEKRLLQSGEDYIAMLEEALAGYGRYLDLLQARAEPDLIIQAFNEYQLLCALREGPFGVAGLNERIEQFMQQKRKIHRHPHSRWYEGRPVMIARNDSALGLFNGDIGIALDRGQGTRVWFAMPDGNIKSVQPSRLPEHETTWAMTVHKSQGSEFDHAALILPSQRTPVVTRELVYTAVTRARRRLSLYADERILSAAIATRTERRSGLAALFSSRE
Exodeoxyribonuclease V, sequence (P07648 whole entry): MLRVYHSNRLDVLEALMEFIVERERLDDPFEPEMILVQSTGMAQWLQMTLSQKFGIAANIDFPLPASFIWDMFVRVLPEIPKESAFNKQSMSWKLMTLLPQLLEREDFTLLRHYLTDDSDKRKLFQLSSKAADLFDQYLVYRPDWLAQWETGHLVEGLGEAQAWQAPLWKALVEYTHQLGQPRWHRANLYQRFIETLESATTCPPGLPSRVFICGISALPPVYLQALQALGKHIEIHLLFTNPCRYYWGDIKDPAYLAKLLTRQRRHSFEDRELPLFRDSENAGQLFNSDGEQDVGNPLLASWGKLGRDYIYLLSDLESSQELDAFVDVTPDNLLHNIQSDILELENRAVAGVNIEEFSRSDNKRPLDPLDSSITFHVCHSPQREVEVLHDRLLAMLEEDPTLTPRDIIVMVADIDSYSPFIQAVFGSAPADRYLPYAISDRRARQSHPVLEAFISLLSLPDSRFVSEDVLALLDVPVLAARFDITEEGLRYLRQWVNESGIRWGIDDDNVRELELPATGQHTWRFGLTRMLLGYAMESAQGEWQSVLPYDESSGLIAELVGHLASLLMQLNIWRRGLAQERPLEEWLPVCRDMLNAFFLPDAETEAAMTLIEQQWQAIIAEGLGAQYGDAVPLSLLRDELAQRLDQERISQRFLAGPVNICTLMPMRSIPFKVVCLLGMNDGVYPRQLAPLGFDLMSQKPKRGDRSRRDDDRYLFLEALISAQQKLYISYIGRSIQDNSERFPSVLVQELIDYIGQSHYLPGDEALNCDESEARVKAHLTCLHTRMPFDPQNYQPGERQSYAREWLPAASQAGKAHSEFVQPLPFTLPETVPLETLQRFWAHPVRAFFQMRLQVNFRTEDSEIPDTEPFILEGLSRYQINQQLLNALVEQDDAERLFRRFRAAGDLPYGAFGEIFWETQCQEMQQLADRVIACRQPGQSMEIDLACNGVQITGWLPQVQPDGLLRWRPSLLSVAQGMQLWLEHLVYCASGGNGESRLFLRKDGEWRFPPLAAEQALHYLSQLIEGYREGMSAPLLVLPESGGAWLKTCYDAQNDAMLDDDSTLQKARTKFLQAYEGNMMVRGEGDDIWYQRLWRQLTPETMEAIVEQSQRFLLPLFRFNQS
Exodeoxyribonuclease V, sequence (P08394 whole entry): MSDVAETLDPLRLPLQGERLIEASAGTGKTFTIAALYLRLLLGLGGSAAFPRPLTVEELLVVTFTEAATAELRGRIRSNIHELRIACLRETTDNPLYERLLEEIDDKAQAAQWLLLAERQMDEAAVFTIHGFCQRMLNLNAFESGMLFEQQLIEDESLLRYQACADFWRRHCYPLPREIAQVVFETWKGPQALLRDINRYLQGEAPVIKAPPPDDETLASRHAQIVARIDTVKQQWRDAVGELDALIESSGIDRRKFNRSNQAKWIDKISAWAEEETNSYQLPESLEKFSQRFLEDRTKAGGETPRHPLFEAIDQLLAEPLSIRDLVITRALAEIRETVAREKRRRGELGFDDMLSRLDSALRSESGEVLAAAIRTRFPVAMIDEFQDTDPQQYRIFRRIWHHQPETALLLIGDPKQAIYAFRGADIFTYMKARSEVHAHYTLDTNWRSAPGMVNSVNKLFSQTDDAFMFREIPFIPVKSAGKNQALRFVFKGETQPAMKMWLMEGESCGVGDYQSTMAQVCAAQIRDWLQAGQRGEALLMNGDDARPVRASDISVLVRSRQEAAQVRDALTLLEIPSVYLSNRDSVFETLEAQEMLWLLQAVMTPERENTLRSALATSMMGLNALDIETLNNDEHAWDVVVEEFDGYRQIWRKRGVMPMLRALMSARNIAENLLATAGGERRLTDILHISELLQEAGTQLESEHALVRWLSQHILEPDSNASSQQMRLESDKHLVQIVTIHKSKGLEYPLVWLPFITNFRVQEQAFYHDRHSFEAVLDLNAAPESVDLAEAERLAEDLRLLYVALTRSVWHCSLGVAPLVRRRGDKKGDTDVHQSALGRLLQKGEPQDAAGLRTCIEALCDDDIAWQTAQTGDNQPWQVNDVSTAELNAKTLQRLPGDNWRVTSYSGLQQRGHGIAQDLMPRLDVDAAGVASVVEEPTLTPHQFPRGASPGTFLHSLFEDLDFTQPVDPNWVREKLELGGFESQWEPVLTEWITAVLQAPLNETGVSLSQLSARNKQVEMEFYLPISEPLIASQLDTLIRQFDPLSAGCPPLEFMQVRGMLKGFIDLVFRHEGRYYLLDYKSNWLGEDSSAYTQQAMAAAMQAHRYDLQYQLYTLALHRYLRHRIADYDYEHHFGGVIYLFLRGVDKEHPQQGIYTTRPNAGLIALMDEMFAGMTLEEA
T2 sequence (P41145 whole entry): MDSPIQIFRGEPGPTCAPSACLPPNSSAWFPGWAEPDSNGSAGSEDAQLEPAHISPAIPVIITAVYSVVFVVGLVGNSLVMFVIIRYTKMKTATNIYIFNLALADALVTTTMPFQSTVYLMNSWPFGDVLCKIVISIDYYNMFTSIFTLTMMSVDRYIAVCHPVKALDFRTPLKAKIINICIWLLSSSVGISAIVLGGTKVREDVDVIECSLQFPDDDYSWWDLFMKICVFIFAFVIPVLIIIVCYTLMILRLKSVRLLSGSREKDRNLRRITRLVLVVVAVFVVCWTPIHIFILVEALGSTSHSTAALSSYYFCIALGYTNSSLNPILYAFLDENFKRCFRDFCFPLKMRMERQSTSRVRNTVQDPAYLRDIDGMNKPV
Beta-galactosidase, sequence (Q8VNN2 whole entry): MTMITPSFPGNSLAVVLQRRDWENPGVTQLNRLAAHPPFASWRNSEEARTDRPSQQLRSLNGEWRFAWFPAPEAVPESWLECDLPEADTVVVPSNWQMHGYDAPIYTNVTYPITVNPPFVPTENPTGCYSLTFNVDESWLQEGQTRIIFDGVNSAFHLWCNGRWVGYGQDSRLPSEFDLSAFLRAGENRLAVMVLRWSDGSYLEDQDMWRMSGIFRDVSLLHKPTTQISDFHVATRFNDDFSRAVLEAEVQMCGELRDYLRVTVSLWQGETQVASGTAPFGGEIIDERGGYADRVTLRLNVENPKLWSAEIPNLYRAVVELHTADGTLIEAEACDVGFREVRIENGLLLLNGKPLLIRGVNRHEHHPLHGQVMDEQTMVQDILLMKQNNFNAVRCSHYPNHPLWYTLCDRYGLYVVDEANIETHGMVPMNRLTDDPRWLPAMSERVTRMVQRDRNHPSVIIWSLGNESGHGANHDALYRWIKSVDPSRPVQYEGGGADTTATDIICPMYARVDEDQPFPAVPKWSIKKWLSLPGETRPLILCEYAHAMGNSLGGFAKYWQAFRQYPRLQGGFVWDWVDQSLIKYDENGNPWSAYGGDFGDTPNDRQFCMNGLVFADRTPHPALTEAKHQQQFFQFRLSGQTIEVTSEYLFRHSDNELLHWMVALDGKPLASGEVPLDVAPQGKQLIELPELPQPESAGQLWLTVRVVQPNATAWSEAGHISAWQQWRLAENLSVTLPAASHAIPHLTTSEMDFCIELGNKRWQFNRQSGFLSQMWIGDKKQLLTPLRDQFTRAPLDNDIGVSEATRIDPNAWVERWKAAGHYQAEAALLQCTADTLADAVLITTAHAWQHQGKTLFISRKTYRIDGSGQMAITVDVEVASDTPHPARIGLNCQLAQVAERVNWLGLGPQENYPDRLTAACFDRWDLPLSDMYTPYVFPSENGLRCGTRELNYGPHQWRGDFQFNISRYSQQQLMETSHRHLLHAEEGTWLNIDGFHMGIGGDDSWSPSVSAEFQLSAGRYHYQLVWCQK
Beta Lactamase, sequence (Q932Y6 whole entry): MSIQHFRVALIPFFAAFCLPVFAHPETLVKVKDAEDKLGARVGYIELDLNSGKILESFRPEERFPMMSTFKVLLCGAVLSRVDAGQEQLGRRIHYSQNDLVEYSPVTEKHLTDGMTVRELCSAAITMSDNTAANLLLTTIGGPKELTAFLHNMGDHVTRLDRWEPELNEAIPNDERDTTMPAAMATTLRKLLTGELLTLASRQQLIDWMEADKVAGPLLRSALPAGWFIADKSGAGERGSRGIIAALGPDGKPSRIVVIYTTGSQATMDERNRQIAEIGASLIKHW

S=c1sc2c(Cl)ncnc2n1-c1ccccc1
IC50 [1]: 4.7 µM (active)
EC50 [2]: 8.14 µM (active)
EC50 (Mu-type opioid receptor): > 32 µM (inactive)
EC50 [3]: > 32 µM (inactive)
EC50 [4]: 7.71 µM (active)
EC50 [5]: 2.26 µM (active)
IC50 [6]: 7.27 µM (active)
EC50 [7]: 14.4 µM (active)
EC50 (Beta-galactosidase): > 31.5 µM (inactive)
IC50 [8]: 3.55 µM
EC50 [9]: 17.6 µM (active)
IC50 (CHO): 9.35 µM (active)
IC50 (Beta Lactamase): > 49.7 µM (inactive)
AC50 (Paired box protein Pax-8): 7.52 µM (active)
AC50 [10]: 2.79 µM (active)
AC50 [11]: 8.81 µM (active)
AC50 [12]: 13.2 µM (active)
AC50 [13]: 17.8 µM (active)
AC50 [14]: 60.6 µM (active)
AC50 [15]: 24.5 µM (active)
AC50 [16]: 8.88 µM (active)

Cc1onc(-c2ccccc2)c1C(=O)NC(=S)NNC(=O)c1ccccc1O
IC50 (Exodeoxyribonuclease V): > 119 µM (inactive)
IC50 [17]: > 119 µM (inactive)
AC50 [18]: 2.92 µM (active)
AC50 (INS1): 7.21 µM (active)
IC50 (H9c2): > 79 µM (inactive)
IC50 [19]: > 122 µM (inactive)

NC(=O)Nc1ccccc1C(=O)NCCc1ccccc1
IC50 [20]: > 79.4 µM (inactive)
IC50 [21]: > 79.4 µM (inactive)
IC50 [22]: > 79.4 µM (inactive)

COc1ccc(N(CC(=O)NC(C)C)C(=O)CCC(=O)Nc2ccccn2)cc1
IC50 [20]: > 79.4 µM (inactive)
IC50 [21]: > 79.4 µM (inactive)
IC50 [22]: > 79.4 µM (inactive)

COc1cccc(/C=N/NC(=O)c2[nH]c(C)c(C(=O)N/N=C/c3cccc(OC)c3O)c2C)c1O
IC50 [23]: 2.8 µM (active)
EC50 [2]: 9.94 µM (active)
EC50 [24]: 18.9 µM (active)
EC50 [4]: 15.3 µM (active)
IC50 (Exodeoxyribonuclease V): > 119 µM (inactive)
AC50 [25]: 2.44 µM (active)
IC50 [17]: > 119 µM (inactive)
IC50 (Cysteine protease ATG4B): 7.03 µM (active)
IC50 (Phospholipase A2): 9.88 µM (active)
